Measurements reported in article PMC9965125, “New NSAID Conjugates as Potent and Selective COX-2 Inhibitors: Synthesis, Molecular Modeling and Biological Investigation” (Molecules, 2023).

Assays:
[1] = system: acetic acid-induced abdominal writhing; assay: acetic acid-induced abdominal writhing assay (peripheral analgesic); type: in vivo, mice; conditions: for % Inhibition/Protection / Writing Reflex ± SE: 10 mg/kg indomethacin mol equivalent i.p.; for Potency: % inhibition/protection compared to indomethacin; for Writing Reflex ± SE: number of writhing counted for 30 min
hot plate latency = assay: hot plate assay (central analgesic); type: in vivo, mice; conditions: for % Protection / Latency Period ± SE: 10 mg/kg indomethacin mol equivalent i.p.; for Latency Period ± SE: cutoff 15 sec; for Potency: at 120 min compared to indomethacin
gastric mucosa = conditions: both, albino, mouse, in vivo, 3 days; for % Incidence of Ulcer Divided by 10 / Average Severity of Ulcer / Average of Ulcer Number / Number of Animals with Ulcer: po, 10 mg/kg
Experimental: The ulcerogenic liability was determined in albino mice obeying the standard method.
Animals of either sex (pregnant females were excluded) weighing 20 –25 g were divided into 8 groups of 6 animals each. The animals fasted 18 h before drug administration.
80 administered orally for three successive days to fasted animals at a dose of 10 mg kg-1 (animal […]
The control group animals were given water only with few drops of Tween 80. The animals were sacrificed by cervical dislocation and the stomach was removed, opened along the greater curvature and rinsed with saline. The gastric mucosa was examined with a magnifying lens (10x) for the presence of lesions and ero sions. The ulcer index was calculated (Table 4) and the degree of ulcerogenic effect was expressed in terms of.
1. The percentage incidence of ulcers divided by 10.
2. Average number of ulcers per stomach.
3. Average severity of ulcers.
The ulcer index is the value that resulted from the sum of the above three values. […]

COX-2 = target: T1, COX-2 (Homo sapiens, UniProt P35354); assay: COX-2 inhibitor screening assay (fluorometric kit); type: biochemical; conditions: for SI: SI = IC50 (COX-1)/IC50 (COX-2); for IC50: read-out: IC50, μM ± SD COX-2
T1 construct: purchased BioVision Incorporated K547-100 and K548-100
T1 sequence (P35354 18-604): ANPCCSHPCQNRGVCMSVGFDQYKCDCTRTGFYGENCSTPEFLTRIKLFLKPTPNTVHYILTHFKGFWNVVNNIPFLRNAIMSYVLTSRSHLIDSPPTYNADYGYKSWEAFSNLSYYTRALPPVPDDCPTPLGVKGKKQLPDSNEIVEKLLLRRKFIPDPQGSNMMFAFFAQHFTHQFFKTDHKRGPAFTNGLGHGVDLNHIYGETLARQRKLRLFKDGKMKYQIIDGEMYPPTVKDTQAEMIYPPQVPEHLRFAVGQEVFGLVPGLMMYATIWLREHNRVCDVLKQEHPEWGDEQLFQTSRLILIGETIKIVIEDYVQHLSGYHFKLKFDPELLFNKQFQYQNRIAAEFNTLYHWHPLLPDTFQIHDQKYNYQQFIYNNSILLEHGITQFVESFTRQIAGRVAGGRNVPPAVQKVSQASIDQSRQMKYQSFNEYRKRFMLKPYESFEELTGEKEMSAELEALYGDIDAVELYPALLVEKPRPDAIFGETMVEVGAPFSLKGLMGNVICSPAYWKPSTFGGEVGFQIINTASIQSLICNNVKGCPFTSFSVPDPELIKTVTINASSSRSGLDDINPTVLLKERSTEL
Experimental: the manufactor’s instructions.
The COX-1/2 inhibitor screening protocols can be summarized in following:
The test compound is dissolved in DMSO. Dilute to 10X the desired test concentration with COX-1 Assay Buffer before use. Add 10 μl diluted test inhibitor or Assay Buffer into assigned wells as sample screen [S] or Enzyme Control [EC] (no inhibitor) respectively. Add 2 μl of SC560 (in case […]
the wells as Inhibitor Control [IC].
Dilute COX Cofactor 200 times by adding 2 μl of COX Cofactor to 398 μl of COX Assay Buffer just before use. Mix well. Prepare Arachidonic Acid solution by adding 5 μl of supplied Arachidonic Acid to 5 μl of NaOH just before use. Vortex briefly to mix. Dilute Arachidonic Acid/NaOH solution 10 times by adding 90 μl ddH2O, vortex briefly to mix. Make as much as […]
For each well, prepare 80 μl of master mix as follows:
Diluted COX Cofactor 2 μl
Add 80 μl of Reaction Mix into each well. Use a multi -channel pipette to add 10 μl of diluted Arachidonic Acid/NaOH solution into each well to initiate all the reactions at the same time.
(T1 and T2) in the linear range of the plot and obtain the corresponding fluorescence values (RFU 1 […]
Calculate the slope for all samples, including Enzyme Control (EC), by dividing the net ΔRFU (RFU2 – RFU1) values by the time ΔT (T2 – T1). Calculate % Relative Inhibition as follows:
% Relative Inhibition = Slope of EC − Slope of S X 100

| SMILES | % Inhibition/Protection [1] | Potency [1] | Writing Reflex ± SE [1] | % Protection (hot plate latency; after 30 min) | Latency Period ± SE (hot plate latency; after 30 min) | % Protection (hot plate latency; after 60 min) | Latency Period ± SE (hot plate latency; after 60 min) | % Protection (hot plate latency; after 90 min) | Latency Period ± SE (hot plate latency; after 90 min) | % Protection (hot plate latency; after 120 min) | Latency Period ± SE (hot plate latency; after 120 min) | Potency (hot plate latency) | Ulcer Index (gastric mucosa) | % Incidence of Ulcer Divided by 10 (gastric mucosa) | Average Severity of Ulcer (gastric mucosa) | Average of Ulcer Number (gastric mucosa) | Number of Animals with Ulcer (gastric mucosa) | SI (COX-2) | IC50 (COX-2) | % Protection (hot plate latency; after 120 min, 10 mg/kg) |
| --- | --- | --- | --- | --- | --- | --- | --- | --- | --- | --- | --- | --- | --- | --- | --- | --- | --- | --- | --- | --- |
| C#CCOC(=O)C(C)c1ccc(CC(C)C)cc1 (stereo not drawn) [Compound 3, Prop-2-yn-1-yl 2-(4-isobutylphenyl) Propanoate] | 71.8% | 100.0% | 11.3 ± 0.9 | 55.2% | 10.37 ± 1.6 s | 48.3% | 10.78 ± 2.1 s | 19.2% | 10.62 ± 2.2 s | 14.9% | 10.35 ± 1.7 s | 26.4 | 4.33 | 3.33 | 0.67 | 0.33 | 2/6 | 2.262 | 8.6 ± 0.24 µM |  |
| Cc1ccc(-n2cc(COC(=O)C(C)c3ccc(CC(C)C)cc3)nn2)cc1 (stereo not drawn) [Compound 5d, (1-(p-Tolyl)-1H-1,2,3-triazol-4-yl)methyl 2-(4-isobutylphenyl)propanoate] | 82.5% | 114.9% | 7.0 ± 1.3 | 65.0% | 11.02 ± 1.4 s | 35.6% | 9.86 ± 0.7 s | 20.0% | 10.69 ± 0.9 s | 1.2% | 9.12 ± 1.1 s | 2.1 | 0 | 0 | 0 | 0 | 0 | 2.158 | 4.47 ± 0.13 µM |  |
| COc1ccccc1-n1cc(COC(=O)C(C)c2ccc(CC(C)C)cc2)nn1 (stereo not drawn) [Compound 5e, (1-(2-Methoxyphenyl)-1H-1,2,3-triazol-4-yl)methyl 2-(4-isobutylphenyl)propanoate] | 63.3% | 88.2% | 14.7 ± 1.6 | 88.8% | 12.61 ± 2.1 s | 44.8% | 10.53 ± 1.8 s | 36.03% | 12.12 ± 1.7 s |  | 11.53 ± 1.3 s | 49.6 | 0 | 0 | 0 | 0 | 0 | 0.387 | 14 ± 0.4 µM | 28% |
